The record followed here is patent publication US8119568B2, “3-amino-1,2-benzisothiazole compounds for combating animal pest II” (BASF SE, priority 2007, dated 2012).

The structures appear in SMILES notation.

Data set [1] has as its system Green Peach Aphid (Myzus persicae). Description: Green peach aphid (Myzus persicae) test, infested bell pepper leaves dipped in test solution. The format is in vivo. Conditions: 120 h, determined after 5 days, read-out: mortality of green peach aphid in comparison with untreated controls. How it is done: (§1) If not otherwise described, the active compounds were formulated in a mixture of 50 vol.-% acetone:50 vol.-% water. A nonionic surfactant (Kinetic®) was included in the solution at a volume of 0.01% v/v.
(§2) In the following tests, the formulated solutions of the active compounds were diluted to an active ingredient concentration of 300 ppm and the diluted solutions were applied in the below mentioned tests.
Bell pepper plants at the first true-leaf stage were infested prior to treatment by placing heavily infested leaves from the main aphid colony on top of the treatment plants. The aphids were allowed to transfer overnight to accomplish an infestation of 30-40 aphids per plant and the host leaves were removed. The infested leaves of the test plants were then dipped and agitated in the test solution for 3 seconds and allowed to dry in a fume hood. Test plants were maintained under fluorescent lighting in a 24-hr photoperiod at 25° C. and 20-40% relative humidity. Mortality on the treated plants, relative to mortality on untreated check plants, was determined after 5 days.

Data set [2] relates to Southern Armyworm (Spodoptera eridania), 2nd Instar Larvae. Description: Southern armyworm (Spodoptera eridania) test, Sieva lima bean leaves dipped. It counts as in vivo. Conditions: 96 h, 2nd instar larvae on dipped lima bean leaves, at 4 days, read-out: mortality in comparison with untreated controls (southern armyworm). How it is done:
as §2
The active compounds were formulated in 50:50 acetone:water (vol) and 100 ppm Kinetica™ surfactant.
A pair of first true leaves of Sieva lima bean was dipped into the test solution and allowed to dry. The leaves were then placed in a plastic perforated zip enclosure bag and ten 2nd instar larvae were added. At 4 days, observations were made of mortality and reduced feeding.

The test system of data set [3] is Cowpea Aphid (aphis craccivora). Description: Cowpea aphid (aphis craccivora) test, colonized potted cowpea plants sprayed. The format is in vivo. The conditions noted are these: assessed after 24, 72, and 120 hours, read-out: mortality in comparison with untreated controls (cowpea aphid). The method, then:
as §2
The active compound is dissolved at the desired concentration in a mixture of 1:1 (vol:vol) distilled water:acetone. The test solution is prepared at the day of use.
Potted cowpea plants colonized with approximately 100-150 aphids of various stages were sprayed after the pest population has been recorded. Population reduction was assessed after 24, 72, and 120 hours.

Data set [4] relates to Cotton Aphid (Aphis gossypii). Briefly: Cotton aphid (Aphis gossypii) test, infested cotton cotyledons dipped in test solution. Conditions: 120 h, determined after 5 days, read-out: mortality of cotton aphid (Aphis gossypii, mixed life stages) in comparison with untreated controls. It counts as in vivo. The method, then:
as §1, §2
Cotton plants at the cotyledon stage were infested prior to treatment by placing a heavily infested leaf from the main aphid colony on top of each cotyledon. The aphids were allowed to transfer overnight and the host leaf was removed. The infested cotyledons were then dipped and agitated in the test solution for 3 seconds and allowed to dry in a fume hood. Test plants were maintained under fluorescent lighting in a 24-hr photoperiod at 25° C. and 20-40% relative humidity. Aphid mortality on the treated plants, relative to mortality on untreated check plants, was determined after 5 days.

Data set [5] relates to Diamond Back Moth (plutella xylostella). Briefly: Diamond back moth (plutella xylostella) test, Chinese cabbage leaves dipped. It counts as in vivo. The conditions noted are these: 3rd instar larvae on dipped cabbage leaves, recorded 24, 72, and 120 hours after treatment, read-out: mortality in comparison with untreated controls (diamond back moth). The method, then:
as §2
The active compound is dissolved at the desired concentration in a mixture of 1:1 (vol:vol) distilled water:acteon. The test solution is prepared at the day of use.
Leaves of Chinese cabbage were dipped in test solution and air-dried. Treated cabbage leaves were placed in petri dished lined with moist filter paper and 3rd instar larvae were added. Mortality was recorded 24, 72, and 120 hours after treatment.

Regarding `CCN(C(=O)C(F)(F)F)c1nsc2cccc(OC(F)F)c12` [Compound example 26, N-(4-Difluoromethoxy-benzo[d]isothiazol-3-yl)-N-ethyl-2,2,2-trifluoro-acetamide], the melting point (in general, the temperature of the solid-liquid transition) lay within 176 to 177 °C.
As for `CC(=O)N(C)c1nsc2cccc(OC(F)F)c12` [compound 25], the mortality (as a rule, the share of the test organisms that died) at 300 ppm in data set [1] was no less than 89%.
As for `O=C(Nc1nsc2cccc(Cl)c12)c1cc(Br)nn1-c1ncccc1Cl` [compound 74], in data set [2], the mortality at 300 ppm is greater than 89%.
As to `O=C(Nc1nsc2cccc(Cl)c12)c1cc(C(F)(F)F)nn1-c1ncccc1Cl` [compound 75], the mortality at 300 ppm in data set [2] is greater than 89%.
Take `COCC(=O)N(C)c1nsc2cccc(OC(F)F)c12` [compound 76]: the figures for the mortality at 300 ppm in data set [1] and in data set [3] were no less than 89% and greater than 89%, respectively.
As to `CCN(C(=O)COC)c1nsc2cccc(OC(F)F)c12` [compound 77], the mortality at 300 ppm in data set [1] is no less than 89%; in data set [3], greater than 89%.
Take `CCN(C(=O)c1cc(C(F)(F)F)nn1-c1ncccc1Cl)c1nsc2cccc(OC(F)F)c12` [compound 81]: the mortality at 300 ppm in data set [3] was greater than 89%.
As to `CN(C(=O)c1ccc(Cl)nc1)c1nsc2cccc(OC(F)F)c12` [compound 82], the mortality at 300 ppm in data set [1] was no less than 89%; in data set [3], greater than 89%.
Turning to `CCN(C(=O)c1ccc(Cl)nc1)c1nsc2cccc(OC(F)F)c12` [compound 83], the mortality at 300 ppm in data set [1] was no less than 89%.
Turning to `CCN(C(=O)c1cc(C(F)(F)F)nn1-c1ncccc1Cl)c1nsc2cccc(OC)c12` [compound 86], the mortality at 300 ppm in data set [4] is no less than 89%.
Consider `COCC(=O)N(C)c1nsc2cccc(Cl)c12` [compound 87], for which the mortality at 300 ppm is no less than 89% in data set [1], no less than 89% in data set [4] and greater than 89% in data set [3].
With `O=C(Nc1nsc2cccc(OC(F)F)c12)c1cc(Br)nn1-c1ncccc1Cl` [compound 89], the mortality at 300 ppm in data set [4] was no less than 89%.
Same read-out and setting: in the case of `CN(C(=O)c1cnccc1C(F)(F)F)c1nsc2cccc(OC(F)F)c12` [compound 91] it was no less than 89%; in that of `CN(C(=O)c1cc(Br)nn1-c1ncccc1Cl)c1nsc2cccc(OC(F)F)c12` [compound 92], no less than 89%.
As to `COc1cccc2snc(N(C)C(=O)c3cc(Br)nn3-c3ncccc3Cl)c12` [compound 94], the mortality at 300 ppm in data set [4] is no less than 89%; in data set [3], greater than 89%.
Turning to `COc1cccc2snc(N(C)C(=O)c3cnccc3C(F)(F)F)c12` [compound 105], the results for the mortality at 300 ppm in data set [4], in data set [3] and in data set [5] were no less than 89%, greater than 89% and greater than 89%, respectively.
With `CN(C(=O)c1cnccc1C(F)(F)F)c1nsc2cccc(Cl)c12` [compound 106], the values for the mortality at 300 ppm in data set [4] and in data set [3] were no less than 89% and greater than 89%, respectively.
Take `CN(C(=O)c1ccc(C(F)(F)F)nc1)c1nsc2cccc(Cl)c12` [compound 108]: the mortality at 300 ppm in data set [4] is no less than 89%; in data set [3], greater than 89%.
Take `Cc1cccc2snc(NC(=O)c3cc(C(F)(F)F)nn3-c3ncccc3Cl)c12` [compound 113]: the mortality at 300 ppm in data set [2] and in data set [5] was greater than 89% in each case.
As for `O=C(Nc1nsc2cccc(Cl)c12)c1ccc(C(F)(F)F)nc1Cl` [compound 115], the mortality at 300 ppm in data set [4] was no less than 89%.
Consider `CCCC(=O)N(CC)c1nsc2cccc(OC(F)F)c12` [compound 118], for which the mortality at 300 ppm in data set [1] was no less than 89%; in data set [4] it was no less than 89%; in data set [3], greater than 89%.
In the case of `COc1cccc2snc(N=S(C)C)c12` [compound 125], the mortality at 300 ppm in data set [1] and in data set [4] was no less than 89% in each case.
